By Km is commonly meant the substrate concentration at which the rate is half of its maximum. As usually defined, the inhibition is the change of the read-out against control, counted positive when it falls.

Data set [1] deals with T1, PEAMT (Spinacia oleracea, UniProt Q9M571).
T1 construct: The PEAMT cDNA comprises a 494-residue open reading frame; made in house; host or cells: Schizosaccharomyces pombe Bx22 (leu1 cho2-) carrying pREP3-PEAMT; desalted crude extract, not purified
T1 sequence (Q9M571 1-494): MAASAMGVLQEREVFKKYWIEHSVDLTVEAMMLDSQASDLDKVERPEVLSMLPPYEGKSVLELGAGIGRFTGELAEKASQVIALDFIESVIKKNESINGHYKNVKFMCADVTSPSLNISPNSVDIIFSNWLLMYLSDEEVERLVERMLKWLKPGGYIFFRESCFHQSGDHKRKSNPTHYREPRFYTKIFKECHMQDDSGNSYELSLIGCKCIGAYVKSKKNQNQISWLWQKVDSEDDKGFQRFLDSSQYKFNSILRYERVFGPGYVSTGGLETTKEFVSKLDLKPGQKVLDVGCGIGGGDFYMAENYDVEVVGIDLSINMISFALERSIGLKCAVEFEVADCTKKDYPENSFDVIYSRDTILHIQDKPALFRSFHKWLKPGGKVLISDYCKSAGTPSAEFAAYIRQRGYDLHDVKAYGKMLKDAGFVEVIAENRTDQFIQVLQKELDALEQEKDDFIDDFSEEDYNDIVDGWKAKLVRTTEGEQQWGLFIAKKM
Description: PEAMT activity assay with extracts of S. pombe Bx22 cells expressing recombinant wild type PEAMT. In kind it is biochemical. To be noted: for inhibition of PEAMT activity (in words): metabolite at 2 mM. How it is done:
Cells were grosn to an OD600 of ≈1 in 50 ml of medium at 30° C., shaking at 250 rpm. […] Subsequent operations were at 0-4° C. Cells were harvested by centrifugation (5000×g, 10 min), washed twice with water and once with 100 mM HEPES-KOH, pH 7.8, resuspended in 0.5 ml of lysis buffer (100 mM HEPES-KOH, pH 7.8, 2 mM Na2EDTA, 5 mM dithiothreitol, 10% glycerol) and transferred to 2-ml microfuge tubes containing ≈1.5 g of acid-washed glass beads (425-600 μm). Cells were broken by vortexing at maximum speed for 2 min. The brei was centrifuged (16,000×g, 2 min), the supernatant was removed and the beads were washed with 3×1 ml of lysis buffer. The combined supernatants were clarified by centrifugation (16,000×g, 15 min) and desalted on a PD-10 column (Amersham Pharmacia Biotech, Piscataway, N.J.) equilibrated with storage buffer (10 mM HEPES-KOH, pH 7.8, 2 mM Na2EDTA, 5 mM dithiotreitol, 10% glycerol). The extract was aliquotted, frozen in liquid N2 and stored at […]. Spinach leaf extracts were prepared as described (Summers and […], 1993). Protein was determined using the Bio-Rad dye reagent (Hercules, Calif.). Native molecular mass was estimated using a Waters 626 HPLC system (Milford, Mass.) equipped with a Superdex 200 HR 10/30 column (Amersham Pharmacia Biotech) as described ([…] al., 1995). PEAMT activity was measured by a modification of published methods (Datko and Mudd, 1988b; Summers and […], 1993), under conditions in which product formation was proportional to enzyme concentration and time. […] Reactions were stopped by adding 1 ml of ice-cold water; each was applied to a 1-ml AG-50 (HR^+) column held at 4° C. and the assay tube was rinsed with 1 ml of water, which was also applied to the column. Products were eluted with 10 ml of 0.1 N HCl, and 2 ml of the eluate was mixed with 3 ml of Ready Gel scintillation fluid (Beckman, Palo Alto, Calif.) and counted. For assay blanks, enzyme was omitted during incubation and added just before the ion exchange step.

For data set [2], the target named is T1, PEAMT. Description: AdoMet:EA N-methyltransferase activity assay of the complemented strain. In kind it is biochemical. The following applies: complemented strain extract. Here is the method:
(§1) AdoMet:EA N-methyltransferase activity was assayed as above except that reactions contained 200 nmol EA and 160 nmol (40 nCi) of [methyl-^14C]AdoMet. The [methyl-^14C]AdoMet was removed by treating with activated charcoal and centrifuging (Cook and Wagner, 1984), and ^14C-incorporation into freebase products was measured by counting a sample of the supernatant. […] For assay blanks, EA was omitted. AdoMet:Ptd-EA N-methyltransferase activity was measured essentially as described (Datko and Mudd, 1988b). Assays (final volume 100 μl) contained 9 μl 10X assay buffer, 0.8 nmol (47 nCi) [methyl-^14C]AdoMet, 10 μl of a Ptd-EA emulsion in 1× assay buffer (10 mg ml^−1, sonicated for 3×30 sec), and enzyme extract; incubation was for 30 min at 30° C. The phospholipid fraction was isolated for ^14C quantification as described (Datko and Mudd, 1988b) except that the methanol:chloroform:water proportions were 12:5:1 (vol./vol./vol.). Data were corrected for the ^14C incorporation in control assays containing extract from Bx22 cells.

The target in data set [3] is T2, ΔPEAMT (Spinacia oleracea, UniProt Q9M571).
T2 construct: made in house; host or cells: Schizosaccharomyces pombe Bx22 (leu1 cho2-) carrying pREP3-ΔPEAMT; desalted crude extract, not purified
T2 sequence (Q9M571 with tags, fused parts or gaps): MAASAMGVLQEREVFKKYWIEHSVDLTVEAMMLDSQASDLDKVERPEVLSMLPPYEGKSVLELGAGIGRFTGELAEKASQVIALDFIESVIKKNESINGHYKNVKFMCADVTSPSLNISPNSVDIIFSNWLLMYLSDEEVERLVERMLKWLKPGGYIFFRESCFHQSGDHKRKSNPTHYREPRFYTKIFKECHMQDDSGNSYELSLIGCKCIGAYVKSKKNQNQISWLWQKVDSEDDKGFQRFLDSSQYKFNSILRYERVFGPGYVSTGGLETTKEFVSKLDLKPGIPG
Description: PEAMT activity assay with extracts of S. pombe Bx22 cells expressing truncated ΔPEAMT. In kind it is biochemical. Here is the method: The plasmid encoding PEAMT, designated pREP3-PEAMT, was digested with BamHI and end-polished with T4 DNA polymerase. The 3'-sequence of PEAMT was removed by digestion with MscI; the remaining sequence plus vector was gel-purified and religated to give ΔPEAMT. In ΔPEAMT the native coding sequence terminates at […], and the pREP3 polylinker adds the sequence […] to the carboxyl-terminus. Cells were grosn to an OD600 of ≈1 in 50 ml of medium at 30° C., shaking at 250 rpm. […] Subsequent operations were at 0-4° C. Cells were harvested by centrifugation (5000×g, 10 min), washed twice with water and once with 100 mM HEPES-KOH, pH 7.8, resuspended in 0.5 ml of lysis buffer (100 mM HEPES-KOH, pH 7.8, 2 mM Na2EDTA, 5 mM dithiothreitol, 10% glycerol) and transferred to 2-ml microfuge tubes containing ≈1.5 g of acid-washed glass beads (425-600 μm). Cells were broken by vortexing at maximum speed for 2 min. The brei was centrifuged (16,000×g, 2 min), the supernatant was removed and the beads were washed with 3×1 ml of lysis buffer. The combined supernatants were clarified by centrifugation (16,000×g, 15 min) and desalted on a PD-10 column (Amersham Pharmacia Biotech, Piscataway, N.J.) equilibrated with storage buffer (10 mM HEPES-KOH, pH 7.8, 2 mM Na2EDTA, 5 mM dithiotreitol, 10% glycerol). The extract was aliquotted, frozen in liquid N2 and stored at […]. Spinach leaf extracts were prepared as described (Summers and […], 1993). Protein was determined using the Bio-Rad dye reagent (Hercules, Calif.). Native molecular mass was estimated using a Waters 626 HPLC system (Milford, Mass.) equipped with a Superdex 200 HR 10/30 column (Amersham Pharmacia Biotech) as described ([…] al., 1995). PEAMT activity was measured by a modification of published methods (Datko and Mudd, 1988b; Summers and […], 1993), under conditions in which product formation was proportional to enzyme concentration and time. […] Products were eluted with 10 ml of 0.1 N HCl, and 2 ml of the eluate was mixed with 3 ml of Ready Gel scintillation fluid (Beckman, Palo Alto, Calif.) and counted. […]

For data set [4], the target named is T1, PEAMT. Description: AdoMet:Ptd-EA N-methyltransferase activity assay of the complemented strain. In kind it is biochemical. To be noted: complemented strain extract. Here is the method: as §1
Substrate in data set [5]: NCCOP(=O)(O)O
Nature of the data set: PEAMT activity assay with extracts of S. pombe Bx22 cells expressing recombinant wild type PEAMT. The class given is biochemical, Spinacia oleracea. The following applies: other: recombinant PEAMT, substrate. How it is done:
Cells were grosn to an OD600 of ≈1 in 50 ml of medium at 30° C., shaking at 250 rpm. […] Subsequent operations were at 0-4° C. Cells were harvested by centrifugation (5000×g, 10 min), washed twice with water and once with 100 mM HEPES-KOH, pH 7.8, resuspended in 0.5 ml of lysis buffer (100 mM HEPES-KOH, pH 7.8, 2 mM Na2EDTA, 5 mM dithiothreitol, 10% glycerol) and transferred to 2-ml microfuge tubes containing ≈1.5 g of acid-washed glass beads (425-600 μm). Cells were broken by vortexing at maximum speed for 2 min. The brei was centrifuged (16,000×g, 2 min), the supernatant was removed and the beads were washed with 3×1 ml of lysis buffer. The combined supernatants were clarified by centrifugation (16,000×g, 15 min) and desalted on a PD-10 column (Amersham Pharmacia Biotech, Piscataway, N.J.) equilibrated with storage buffer (10 mM HEPES-KOH, pH 7.8, 2 mM Na2EDTA, 5 mM dithiotreitol, 10% glycerol). […] Protein was determined using the Bio-Rad dye reagent (Hercules, Calif.). […] PEAMT activity was measured by a modification of published methods (Datko and Mudd, 1988b; Summers and […], 1993), under conditions in which product formation was proportional to enzyme concentration and time. […] Products were eluted with 10 ml of 0.1 N HCl, and 2 ml of the eluate was mixed with 3 ml of Ready Gel scintillation fluid (Beckman, Palo Alto, Calif.) and counted. […]

The mark [6] stands for this setting: 3-hr incubation, small quantity of P-EA, 5-fold excess of [methyl-14C]AdoMet.

For the molecule `C[S+](CC[C@H](N)C(=O)[O-])C[C@H]1O[C@@H](n2cnc3c(N)ncnc32)[C@H](O)[C@@H]1O` (stereo partly drawn) [AdoMet, S-adenosyl-L-methionine], the Km in data set [1] (recombinant PEAMT, substrate) was 140 µM.
Regarding “S-adenosyl-L-methionine:phosphoethanolamine N-methyltransferase [PEAMT]”, the “PEAMT activity in the absence of P-Cho” value in data set [1] (25 μg protein, 10 min, 50 nmol P-EA, 170 nmol AdoMet) was found to be 737±18 pkat mg^−1 protein. Further, the reaction product result in data set [1] (setting [6]) was “almost solely [^14C]P-Cho”. Moreover, in data set [1] (FIG. 2A), the “specific activity of PEAMT in extracts of complemented cells relative to spinach leaves” value is listed as “up to 80 fold”. In addition, the “pH optimum of PEAMT activity” value in data set [1] (recombinant PEAMT) is 8.1-8.5.
Consider `NCCO` [EA, ethanolamine], for which the “activity with EA as substrate” value in data set [2] is listed as below 1 pkat mg^−1 protein.
Turning to `C[N+](C)(C)CCOP(=O)([O-])O` [P-Cho, phosphocholine], the “reduction of PEAMT activity” value in data set [1] (2 mM P-Cho, 50 nmol P-EA, 170 nmol [methyl-14C]AdoMet, 10 min) amounted to 80%. The inhibition at 10000 µM in data set [1] (10 mM P-Cho, saturating P-EA concentration, read-out: reduction (inhibition) of PEAMT activity) was determined as 95%. Further, the “sensitivity of ΔPEAMT to P-Cho compared with the wild-type enzyme” value in data set [3] (10 mM P-Cho, P=0.05) is reported as “retaining twice as much of its initial activity”.
Consider `C[N+](C)(C)CC(=O)[O-]` [GlyBet, glycine betaine], for which the “inhibition of PEAMT activity (in words)” value in data set [1] is recorded as “not inhibitory”.
In the case of phosphatidylethanolamine [Ptd-EA], in data set [4], the “activity with Ptd-EA as substrate” value is on record as below 1 pkat mg^−1 protein.
For the molecule `CN(C)CCO` [DME], the “inhibition of PEAMT activity (in words)” value in data set [1] is “not inhibitory”.
Same read-out and setting: the result for `CNCCO` [MME] reads “not inhibitory”.

B1: ΔPEAMT: truncated spinach PEAMT; native coding sequence terminates at Gly-286, plus Ile Pro Gly; SEQ ID NO:4 (protein, listed as Spinacia oleracea)
chain: MAASAMGVLQEREVFKKYWIEHSVDLTVEAMMLDSQASDLDKVERPEVLSMLPPYEGKSVLELGAGIGRFTGELAEKASQVIALDFIESVIKKNESINGHYKNVKFMCADVTSPSLNISPNSVDIIFSNWLLMYLSDEEVERLVERMLKWLKPGGYIFFRESCFHQSGDHKRKSNPTHYREPRFYTKIFKECHMQDDSGNSYELSLIGCKCIGAYVKSKKNQNQISWLWQKVDSEDDKGFQRFLDSSQYKFNSILRYERVFGPGYVSTGGLETTKEFVSKLDLKPGIPG
On to B1, for which the “PEAMT activity in the absence of P-Cho” value in data set [3] (50 μg protein, 10 min, 50 nmol P-EA, 170 nmol AdoMet) was 200±10 pkat mg^−1 protein. Further, the reaction product result in data set [3] (setting [6]) was “only [^14C]P-MME”.

B2: PEAMT (Spinacia oleracea) (protein)
chain: MAASAMGVLQEREVFKKYWIEHSVDLTVEAMMLDSQASDLDKVERPEVLSMLPPYEGKSVLELGAGIGRFTGELAEKASQVIALDFIESVIKKNESINGHYKNVKFMCADVTSPSLNISPNSVDIIFSNWLLMYLSDEEVERLVERMLKWLKPGGYIFFRESCFHQSGDHKRKSNPTHYREPRFYTKIFKECHMQDDSGNSYELSLIGCKCIGAYVKSKKNQNQISWLWQKVDSEDDKGFQRFLDSSQYKFNSILRYERVFGPGYVSTGGLETTKEFVSKLDLKPGQKVLDVGCGIGGGDFYMAENYDVEVVGIDLSINMISFALERSIGLKCAVEFEVADCTKKDYPENSFDVIYSRDTILHIQDKPALFRSFHKWLKPGGKVLISDYCKSAGTPSAEFAAYIRQRGYDLHDVKAYGKMLKDAGFVEVIAENRTDQFIQVLQKELDALEQEKDDFIDDFSEEDYNDIVDGWKAKLVRTTEGEQQWGLFIAKKM
notes: The PEAMT cDNA comprises a 494-residue open reading frame; made in house; host or cells: Schizosaccharomyces pombe Bx22 (leu1 cho2-) carrying pREP3-PEAMT; desalted crude extract, not purified
For the molecule B2, the Km in data set [5] stood at 96 µM.

For the origin of these results see US6979732B1, “Polynucleotide compositions encoding S-adenosyl-L-methionine:phosphoethanolamine N-methyltransferase and methods for modulating lipid biosynthesis in plants” (University of Florida, priority 2000, dated 2005).
